Experimental data: patent US20260224521A1, “BIOMOLECULE FOR TREATMENT OF CORNEAL PATHOLOGIES” (Board of Supervisors of Louisiana State University and …, priority 2019, published 2026)

How the values were obtained:
[1] = mouse model of tibia bone fracture (96); cited from earlier work
AXL receptors = settings: osteoporosis mouse model (97); cited from earlier work
mouse cornea [2] = settings: topical eye drops, 3× daily for 96 hours; 2005 (76); cited from earlier work
[3] = Incorporation of DHA into PC and PE after topical DHA to corneas with damaged stromal nerves; format: in vivo; settings: 1 h, injured mouse corneas
Description: Proportion of PC and PE containing oleic acid (18:1) in the sn-1 and DHA in the sn-2 position. PE was more enriched in the DHA than PC. […] Corneal lipid profiles were analyzed by mass spectrometry-based lipidomic analysis.

rabbit cornea = settings: cited from earlier work
injured corneas = settings: NPD1 added to injured corneas (27); cited from earlier work
mouse cornea [4] = settings: subconjunctival injection every 48 hours, 14 days; 2009 (77); cited from earlier work
corneal nerves [5] = settings: daily i.p. injections of 1 ng/g body weight for 8 weeks; 2017 (79); cited from earlier work
mouse cornea [6] = assay: Corneal wound healing 20 h after injury (methylene blue stained wounded area); format: in vivo; settings: 20 h after injury and topical treatment; compared to vehicle
Description: Studies have shown that PEDF+DHA promotes corneal wound healing in rabbit (20, 21), and in normal and diabetic mice (24, 25) after experimental surgery. We validated the ability of RvD6s (either RvD6 or RvD6si) in stimulating corneal wound healing. The right mouse eyes were injured, and the animals were divided into four groups: vehicle, PEDF+DHA, RvD6, and RvD6si (FIG. 4).
(§1) Mice were anesthetized with a mix of ketamine (200 mg/kg) and xylazine (10 mg/kg) injected intraperitoneally, and one drop of proparacaine hydrochloride solution (0.5%) was applied to the right eye subjected to injury. As previously described (19, 29), the center of the cornea was demarcated with a 2 mm trephine, and the epithelium and the anterior stroma were gently removed under a surgical microscope using a corneal rust ring remover (Algerbrush II; Alger Equipment Co., Lago Vista, TX, USA). One drop of 0.3% of tobramycin ophthalmic solution (Henry Schein, Melville, NY, USA) was applied to the eye to prevent postoperative infection. The same investigator (J.H.) performed all surgeries. Afterward, 10 μl of PEDF (50 ng/ml) plus DHA (50 nM) or DHA-derived lipid mediators were applied topically, as explained in each experimental design.
Mice were euthanized 20 h after injury and treatment, and corneas were stained with 0.5% methylene blue for 20 sec and then washed with PBS for 2 min. Photographs were taken with a dissecting microscope (SMZ 1500; Nikon, Tokyo, Japan) through an attached digital camera (DXM 1200; Nikon). The images corresponding to the wounded area were quantified using Photoshop CC 2014 software (Adobe, San Jose, CA, USA).

mouse cornea [7] = assay: Corneal sensitivity measurement (Belmonte non-contact aesthesiometer); format: in vivo; settings: day 9 after injury and treatment; vs vehicle
Description: Corneal sensitivity was evaluated at days 3, 6, 9 and 12 after corneal injury and treatment (FIG. 4). A new methodology to measure the sensation in mouse cornea was introduced using the Belmonte non-contact aesthesiometer. […] It is important to note that this range of normal corneal sensitivity is critical to evaluate corneal sensation since the Belmonte non-contact aesthesiometer working flow rate is from 20 to 200 ml/min. The range of normal corneal sensitivity from […] in the mouse was regarded as successful recovery after injury and treatment, and it was used to normalize the measurements.
as §1
The non-contact corneal aesthesiometer has been described as a more reliable method than the standard Cochet-Bonnet aesthesiometer to determine the corneal sensation threshold (54). Therefore, for corneal sensation measurement, the Belmonte non-contact corneal aesthesiometer (55) was used with some modification. Briefly, one researcher held the mouse and kept the air output needle at a distance of 3 mm from the cornea. Another researcher controlled the air flow rate. The measurements started at an air flow rate of 80 ml per minute and then increased gradually by ten units until the mouse started blinking. When the mouse blinked, the air flow rate was recorded as the final corneal sensitivity index.

corneal nerves [8] = assay: Corneal nerve analysis (PGP9.5 and SP whole-mount nerve density); format: in vivo, mouse
Text: PEDF+DHA stimulates corneal nerve regeneration in injury animal models (20-25). It was important to confirm the biological activity of RvD6si as a lipid mediator underlying the action of PEDF+DHA. To validate this, mice were injured and treated (as described in FIG. 4). Isolated corneas were stained with PGP 9.5, a pan-neuronal marker, and with SP neuropeptide antibodies. The density of non-injured corneal nerves positive to PGP 9.5 and SP, respectively, was used to normalize the values (FIG. 5). Substance P is a main neuropeptide in mammalian corneas (26-28).
as §1
Twelve days after injury and treatment, mice were euthanized, and the eyes enucleated and fixed with Zamboni's fixative (American Master Tech Scientific, Lodi, CA, USA) for 45 min at room temperature. The corneas were then excised and fixed for an additional 15 min, followed by 3 washes with PBS. To block nonspecific binding, corneas were incubated with 10% normal goat serum plus 0.5% Triton X-100 in PBS for 1 h at room temperature. Afterward, corneas were incubated with the primary antibodies, rabbit monoclonal anti-PGP9.5 (1:500), (ab108986; Abcam, Cambridge, MA, USA), and rat monoclonal anti-substance-P (SP; 1:100) (sc-21715; Santa Cruz Biotechnology, Dallas, TX, USA) for 24 h at room temperature with constant shaking. After being washed with PBS, the corneas were incubated with the corresponding secondary antibodies goat anti-rabbit Alexa-Fluor 488 (1:1000) and goat anti-rat Alexa-Fluor 488 (1:1000) (Thermo Fisher Scientific, Waltham, MA, USA) for 24 h at 4° C. Four radial cuts were performed on each cornea that was flatly mounted on a slide with the endothelium side up and examined with a fluorescent microscope (Deconvolution microscope DP80; Olympus, Tokyo, Japan). The images were merged together to build the entire view of the corneal nerve network. The corneal nerve density was measured using Photoshop CC 2014 (Adobe) as previously described (26, 29).

[9] = tested on: trigeminal ganglion (TG) gene expression; assay: Trigeminal ganglion RNA sequencing after corneal injury and treatment; format: in vivo, mouse; settings: RNA-seq, 12 days after corneal injury and topical treatment; vs vehicle
Description: Because corneal sensory nerves originate in TG neurons, we wanted to validate whether corneal injury could be sensed in the TG and t, in turn, would elicit a gene expression response. Thus, TG were harvested 12 days after injury and treatment with RvD6si or RvD6 or vehicle treatment used as control (FIG. 4) and then RNA-seq analysis was performed. […] The box plots depict two activated genes by RvD6si in this class: C9orf72 and Gpm6a (FIG. 6). We also detected specific genes related to neuropeptides and ion channel receptors in the cornea that are stimulated by the addition of PEDF+DHA (19, 21, 24) (FIG. 6D). The RNA-seq established that RvD6 or RvD6si reduced gene expression of two major neuropeptides, tachykinin precursor 1 (Tac1) that encodes Substance P (SP) and calcitonin-related polypeptide beta (Calcb). It is important to note that these neuropeptides, especially Calcb, are major pain-induced mediators in migraine and other primary headaches (30).
TG corresponding to the injury eye side (n=5) were harvested and kept in RNAlater solution (Thermo Fisher Scientific) until homogenized on ice using a Dounce homogenizer. Total mRNA was extracted using an RNeasy mini kit (Qiagen, Germantown, MD, USA) as described by the manufacturer. Purity and concentration of RNA were determined with a NanoDrop ND-1000 spectrophotometer (Thermo Fisher Scientific), and the samples were stored at −80° C. until used. RNA sequencing was performed using the adapted Smart-seq2 protocol (56). Briefly, one ng of total RNA was reverse transcribed with the Oligo-dT30VN and template-switching oligo (TSO) primers. The total cDNAs were amplified using ISPCR primer, and the library was made using the Nextera XT DNA library preparation kit (Illumina, San Diego, CA, USA). The libraries were pooled using the same molarity and sequenced using the NextSeq 500/550 High Output Kit v2 (75 cycles, Illumina). After demultiplexing, RNA-seq data were aligned to the GENCODE GRCm38 mouse primary genome assembly (Release M22, gencodegenes.org/mouse/) using the RSubread package v1.34.6 for R v3.6.1 (57). The outputted BAM files for sequencing data alignment were counted using featureCounts function (Subread v1.6.5 in Ubuntu LTS 16.4 operating system) (58). Next, the raw count data were subjected to differential gene expression analysis using DESeq2 package for R (59). The adjusted p-values were regarded as the false discover rate (FDR).

[10] = topical NGF (95); cited from earlier work
[11] = tested on: retinal pigment epithelial (RPE) cells; settings: RPE cells (16); cited from earlier work

CC/C=C\C[C@H](O)/C=C\C=C\C/C=C/C=C/C=C/C(O)[C@@H](O)CCC(=O)O (stereo in doubt) [RvD4, Resolvin D4]
pain [1]: no effect

CC/C=C\C[C@@H](O)/C=C/C=C/C/C=C\C/C=C\C/C=C\CCC(=O)O [17R-hydroxy DHA]
pain behavior (AXL receptors): decrease pain behavior

CC/C=C\C[C@H](O)/C=C/C=C\C/C=C\C/C=C\C/C=C\CCC(=O)O [17S-HDHA]
PMNs in the cornea (mouse cornea [2]): Increased | formation of the proinflammatory chemokine KC (mouse cornea [2]): Decreased | rate of re-epithelialization (mouse cornea [2]): Increased the rate of re-epithelialization

CC/C=C\C/C=C\C/C=C\C/C=C\C/C=C\C/C=C\CCC(=O)O [DHA, docosahexaenoic acid]
incorporation of the fatty acid in PC and PE molecular species containing 18:1-DHA [3]: rapid incorporation

CC/C=C\C[C@H](O)\C=C/C=C/C=C/[C@H](O)C/C=C\C/C=C\CCC(=O)O [NPD1, neuroprotectin D1]
PMNs in the cornea (mouse cornea [2]): Increased | formation of the proinflammatory chemokine KC (mouse cornea [2]): Decreased | rate of re-epithelialization (mouse cornea [2]): Increased the rate of re-epithelialization | neutrophil infiltration (rabbit cornea; after 2 and 4 days of treatment, 2013 (41)): Decreased neutrophil infiltration after 2 and 4 | subepithelial corneal nerves and tear secretion (rabbit cornea; topical eye drops 33 ng/eye, 3× daily for 6 weeks, 2013 (41)): Increased subepithelial corneal nerves and tear | gene expression and protein levels of NGF, BDNF and Sema7A (injured corneas): increase

CC/C=C\C[C@H](O)/C=C/C=C\C=C\C=C\[C@@H](O)[C@@H](O)C/C=C\CCC(=O)O [RvD1, Resolvin D1]
mRNA expression levels of TNF-α, IL-1α, IL-1β, VEGF-A, VEGF-C, and VEGFR2 (mouse cornea [4]): macrophages and reduced mRNA expression | suture-induced or IL-1β-induced hemangiogenesis (HA) (mouse cornea [4]): Suppressed suture-induced or IL-1β-induced | diabetes-induced corneal nerve lost (corneal nerves [5]): Reduced the diabetes-induced comeal nerve | pain [1]: pain attenuation

CC/C=C\C[C@H](O)/C=C/C=C\C=C\C=C\[C@@H](O)[C@@H](O)C/C=C\CCC(=O)OC [RvD1-methyl ester]
diabetes-induced corneal nerve lost (corneal nerves [5]): Reduced the diabetes-induced comeal nerve

CC/C=C\C[C@H](O)[C@H](O)/C=C/C=C/C=C\C=C\[C@@H](O)C/C=C\CCC(=O)OC [RvD2-methyl ester]
diabetes-induced corneal nerve lost (corneal nerves [5]): Reduced the diabetes-induced comeal nerve

CC/C=C\C[C@H](O)/C=C/C=C\C[C@@H](O)/C=C/C=C/C=C\[C@@H](O)CCC(=O)O [RvD3, Resolvin D3]
pain [1]: no effect

CC/C=C\C[C@H](O)/C=C/C=C\C/C=C\C=C\[C@@H](O)C/C=C\CCC(=O)O [RvD5, Resolvin D5]
pain [1]: pain attenuation

CC/C=C\C[C@H](O)/C=C/C=C\C/C=C\C/C=C\C=C\[C@@H](O)CCC(=O)O [RvD6, 4S,17S-dihydroxy-5E,7Z,10Z,13Z,15E,19Z-docosahexaenoic acid, reference compound]
corneal wound healing (wound closure) (mouse cornea [6]): faster | corneal sensitivity (mouse cornea [7]): higher | total corneal nerve density, differences between RvD6si, RvD6, and PEDF+DHA (corneal nerves [8]; 12 days after injury and treatment): no significant differences | total corneal nerve density (PGP 9.5) (corneal nerves [8]; 12 days after injury and treatment, % of the normal (uninjured) cornea): 59.7±11.2% | density of SP-positive nerves (corneal nerves [8]; 12 days after injury, compared to the vehicle-treated group): higher | Calcb gene expression in TG [9]: reduced | Tac1 gene expression in TG [9]: reduced

NGF: nerve growth factor
side effect of topical treatment [10]: ocular pain

B1: PEDF: pigment epithelium-derived factor, a broad-acting neurotrophic and neuroprotective factor (protein, UniProt P36955 20-418, looked up)
Pigment epithelium-derived …: QNPASPPEEGSPDPDSTGALVEEEDPFFKVPVNKLAAAVSNFGYDLYRVRSSTSPTTNVLLSPLSVATALSALSLGAEQRTESIIHRALYYDLISSPDIHGTYKELLDTVTAPQKNLKSASRIVFEKKLRIKSSFVAPLEKSYGTRPRVLTGNPRLDLQEINNWVQAQMKGKLARSTKEIPDEISILLLGVAHFKGQWVTKFDSRKTSLEDFYLDEERTVRVPMMSDPKAVLRYGLDSDLSCKIAQLPLTGSMSIIFFLPLKVTQNLTLIEESLTSEFIHDIDRELKTVQAVLTVPKLKLSYEGEVTKSLQEMKLQSLFDSPDFSKITGKPIKLTQVEHRAGFEWNEDGAGTTPSPGLQPAHLTFPLDYHLNQPFIFVLRDTDTGALLFIGKILDPRGP
cornea nerve regeneration (rabbit cornea; treatment with PEDF or DHA alone (19)): no increase | potency in stimulating NPD1 synthesis relative to NGF [11]: 10 times
